biological target: T1, BaF3 BRAF-KIAA1549 fusion cells (Homo sapiens, UniProt P15056); experiment: BaF3 BRAF-KIAA1549 fusion cell proliferation assay (CellTiterGlo); type: cell-based; details: 96 hours incubation, potency code
T1 construct: The BRAF-KIAA1549 fusion mutant was subcloned into pMXs-IRES-Blasticidin (RTV-016, Cell Biolabs, San Diego, CA); fused on or other part: Q9HCM3 (UPF0606 protein KIAA1549)
Description: Retroviral Production: The BRAF-KIAA1549 fusion mutant was subcloned into pMXs-IRES-Blasticidin (RTV-016, Cell Biolabs, San Diego, CA). Retrovirus was produced by transfection of HEK 293T cells with the retroviral BRAF mutant expression vector pMXs-IRES-Blasticidin (RTV-016, Cell Biolabs), pCMV-Gag-Pol vector and pCMV-VSV-G-Envelope vector. Briefly, HEK 293T cells were plated in Poly-D-lysine coated 6-well plate (2.5×10^5 cells per well) and incubated overnight. The next day, retroviral plasmids (1 μg of BRAF-KIAA fusion mutant, 0.32 μg of pCMV-Gag-Pol and 0.165 μg pCMV-VSV-G) were mixed in 300 μL of Optimem (31985, Life Technologies). The mixture was incubated at room temperature for 5 minutes and then added to Optimem containing transfection reagent Lipofectamine (11668, Invitrogen) and incubated for 20 minutes. The mixture was then added dropwise to HEK 293T cells. The next day the medium was replaced with fresh culture medium and retrovirus was harvested at 24 hours.
Generation of BRAF-KIAA1549 fusion stable cell line: BaF3 cells were plated in V-bottom 96 well plate (COSTAR #3894) in 80 μL of RPMI/10% FBS and 0.01 ng/ml mouse IL-3; supplemented with 8 μg/mL polybrene (4×10^4 cells/well). Cells were transduced with 20 μL of BRAF-KIAA1549 fusion viral supernatant by centrifuging for 30 minutes at 1000 rpm. Cells were placed in a 37° C. incubator overnight. Next day 100 μL of RPMI/10% FBS and 0.01 ng/ml mouse IL-3 was added. After 24 hours, 100 μL of cells were transferred to a 24 well plate containing 900 μL of RPMI/10% FBS and 15 μg/mL Blasticidin. Contents of the 24 well plate were sampled for cell viability via CellTiterGlo (Promega) over a 2-week period.
Assay for cell proliferation: BaF3 BRAF-KIAA1549 fusion cells were resuspended at 1.5×10^5c/mL in RPMI containing 10% Heat Inactivated FBS, 1% L-glutamine and dispensed in duplicate ([…]) into 384 well plates. To determine the effect of compound on cell proliferation, BaF3 BRAF-KIAA1549 fusion cells were incubated for 96 hours in the presence of vehicle control (DMSO) or compound at varying concentrations. Inhibition of cell growth was determined by luminescent quantification (Envision by Perkin Elmer) of intracellular ATP content using CellTiterGlo (Promega), according to the protocol provided by the manufacturer. To determine the IC50 values, the vehicle-treated cells were normalized as viable cells and analyzed using the CDD Vault, Collaborative Drug Discovery, Burlingame, CA (the Levenberg-Marquardt algorithm; Levenberg, K., […]; Marquardt, D., 1963).
Tables A1 and A2 assign each compound a code for potency in the BaF3 BRAF-KIAA1549 fusion cell proliferation assay: A, B, C, or D. According to the code, A represents an IC50 value <20 nM; B represents an IC50 value ≥20 nM and <100 nM; C represents an IC50 value ≥100 nM and <500 nM; and D represents an IC50 value ≥500 nM.

T1 sequence (P15056 whole entry, change not shown, the tested form may be a part): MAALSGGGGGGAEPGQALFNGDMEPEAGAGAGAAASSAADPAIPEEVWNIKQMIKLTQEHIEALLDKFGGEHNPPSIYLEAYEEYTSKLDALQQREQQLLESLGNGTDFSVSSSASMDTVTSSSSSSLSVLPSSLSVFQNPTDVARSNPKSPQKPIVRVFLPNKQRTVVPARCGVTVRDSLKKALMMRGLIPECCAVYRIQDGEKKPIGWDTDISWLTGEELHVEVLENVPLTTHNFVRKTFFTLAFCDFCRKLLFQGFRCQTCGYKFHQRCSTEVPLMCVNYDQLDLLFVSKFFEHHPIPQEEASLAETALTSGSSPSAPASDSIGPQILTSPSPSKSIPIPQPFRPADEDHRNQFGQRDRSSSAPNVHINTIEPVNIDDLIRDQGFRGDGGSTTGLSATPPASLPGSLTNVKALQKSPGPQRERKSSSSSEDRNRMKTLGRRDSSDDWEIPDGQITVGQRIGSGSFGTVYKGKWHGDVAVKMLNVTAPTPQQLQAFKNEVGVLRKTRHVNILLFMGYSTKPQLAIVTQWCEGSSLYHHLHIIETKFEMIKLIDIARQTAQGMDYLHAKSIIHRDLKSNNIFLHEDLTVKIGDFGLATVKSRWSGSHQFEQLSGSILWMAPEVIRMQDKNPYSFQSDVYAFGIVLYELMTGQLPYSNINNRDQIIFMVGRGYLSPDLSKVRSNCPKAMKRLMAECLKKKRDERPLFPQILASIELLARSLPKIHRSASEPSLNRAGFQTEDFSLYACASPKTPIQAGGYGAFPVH

Question: Which GI50 does the source give for `COc1nc2c(-c3nccnc3Nc3cc(NC(=O)c4cc(C(F)(F)F)ccn4)ccc3C)ncnc2[nH]1` [IA-122, N-(3-(3-(8-methoxy-9H-purin-6-yl)pyrazin-2-ylamino)-4-methylphenyl)-4-(trifluoromethyl)picolinamide] here?
Answer: 20 to 100 nM

Question: With `Cc1ccc(NC(=O)c2ccc(Cl)c(C(C)(C)C#N)c2)cc1Nc1ncccc1-c1ncnc2[nH]cnc12` [Compound I-37, N-(3-((3-(9H-purin-6-yl)pyridin-2-yl)amino)-4-methylphenyl)-4-chloro-3-(2-cyanopropan-2-yl)benzamide] as the compound, how does the GI50 read?
Answer: 20 to 100 nM

Question: With `Cc1ccc(NC(=O)c2ccc(C(F)(F)F)c(C#N)c2)cc1Nc1ncccc1-c1ncnc2[nH]cnc12` [Compound I-42, N-(3-((3-(9H-purin-6-yl)pyridin-2-yl)amino)-4-methylphenyl)-3-cyano-4-(trifluoromethyl)benzamide] as the compound, how does the GI50 read?
Answer: < 20 nM

Question: Which GI50 does the source give for `Cc1ccc(NC(=O)c2ccc(C(F)(F)F)c(Cl)c2)cc1Nc1ncccc1-c1ncnc2[nH]cnc12` [Compound I-33, N-(3-((3-(9H-purin-6-yl)pyridin-2-yl)amino)-4-methylphenyl)-3-chloro-4-(trifluoromethyl)benzamide] here?
Answer: 20 to 100 nM

Question: With `Cc1ccc(NC(=O)c2cc(C(F)(F)F)ccn2)cc1Nc1ncc(F)cc1-c1ncnc2[nH]cnc12` [IA-118, N-(3-((5-fluoro-3-(9H-purin-6-yl)pyridin-2-yl)amino)-4-methylphenyl)-4-(trifluoromethyl)picolinamide] as the compound, how does the GI50 read?
Answer: 20 to 100 nM

Question: `Cc1ncc(NC(=O)c2cncc(C(F)(F)F)c2)cc1Nc1ncccc1-c1ncnc2[nH]cnc12` [Compound I-18, N-(5-(3-(9H-purin-6-yl)pyridin-2-ylamino)-6-methylpyridin-3-yl)-5-(trifluoromethyl)nicotinamide] was tested. Which GI50 did it give?
Answer: 20 to 100 nM

Question: Which GI50 does the source give for `Cc1ccc(NC(=O)CC2CC(C(F)(F)F)CCO2)cc1Nc1ncccc1-c1ncnc2[nH]cnc12` (stereo not shown) [IA-105, N-(3-((3-(9H-purin-6-yl)pyridin-2-yl)amino)-4-methylphenyl)-2-(4-(trifluoromethyl)tetrahydro-2H-pyran-2-yl)acetamide] here?
Answer: 20 to 100 nM

Question: Which GI50 does the source give for `Cc1ccc(C(=O)Nc2cncc(C(F)(F)F)c2)cc1Nc1ncccc1-c1ncnc2[nH]cnc12` [Compound I-30, 3-((3-(9H-purin-6-yl)pyridin-2-yl)amino)-4-methyl-N-(5-(trifluoromethyl)pyridin-3-yl)benzamide] here?
Answer: < 20 nM

Question: For `Cc1ncc(NC(=O)c2cc(C(F)(F)F)ccn2)cc1Nc1ncccc1-c1ncnc2[nH]cnc12` [Compound I-16, N-(5-(3-(9H-purin-6-yl)pyridin-2-ylamino)-6-methylpyridin-3-yl)-4-(trifluoromethyl)picolinamide], which GI50 is on record?
Answer: < 20 nM

Question: For `Cc1ccc(NC(=O)CC2CCOC(C(F)(F)F)C2)cc1Nc1ncccc1-c1ncnc2[nH]cnc12` (stereo not shown) [Compound I-75, N-(3-((3-(9H-purin-6-yl)pyridin-2-yl)amino)-4-methylphenyl)-2-(2-(trifluoromethyl)tetrahydro-2H-pyran-4-yl)acetamide], which GI50 is on record?
Answer: 20 to 100 nM

Question: How did the GI50 turn out when `Cc1ccc(NC(=O)C[C@@H]2CCN[C@@H](C(F)(F)F)C2)cc1Nc1ncccc1-c1ncnc2[nH]cnc12` (single isomer, unassigned) [IA-144] was run?
Answer: 100 to 500 nM

Question: Which GI50 does the source give for `Cc1ccc(NC(=O)c2nccc(C(F)(F)F)c2Cl)cc1Nc1ncccc1-c1ncnc2[nH]cnc12` [IA-106, N-(3-(3-(9H-purin-6-yl)pyridin-2-ylamino)-4-methylphenyl)-3-chloro-4-(trifluoromethyl)picolinamide] here?
Answer: < 20 nM

Question: Which GI50 does the source give for `Cc1ccc(NC(=O)c2nccc(C(F)(F)F)c2C)cc1Nc1ncccc1-c1ncnc2[nH]cnc12` [Compound I-65, N-(3-((3-(9H-purin-6-yl)pyridin-2-yl)amino)-4-methylphenyl)-3-methyl-4-(trifluoromethyl)picolinamide] here?
Answer: < 20 nM

Question: `Cc1ccc(NC(=O)CC2CCN(C)CCO2)cc1Nc1ncccc1-c1ncnc2[nH]cnc12` (stereo not shown) [IA-136, N-(3-(3-(9H-purin-6-yl)pyridin-2-ylamino)-4-methylphenyl)-2-(4-methyl-1,4-oxazepan-7-yl)acetamide] was tested. Which GI50 did it give?
Answer: ≥ 500 nM

Question: With `Cc1ccc(NC(=O)CC2CCC(F)(F)CC2)cc1Nc1ncccc1-c1ncnc2[nH]cnc12` [Compound I-14, N-(3-(3-(9H-purin-6-yl)pyridin-2-ylamino)-4-methylphenyl)-2-(4,4-difluorocyclohexyl)acetamide] as the compound, how does the GI50 read?
Answer: < 20 nM

Question: For `Cc1ccc(NC(=O)C[C@H]2CCC[C@@H](C(F)(F)F)C2)cc1Nc1ncccc1-c1ncnc2[nH]cnc12` (single isomer, unassigned) [IA-137], which GI50 is on record?
Answer: < 20 nM

Question: `Cc1ccc(NC(=O)c2ccnc(C3CC3)c2)cc1Nc1ncccc1-c1ncnc2[nH]cnc12` [Compound I-19, N-(3-((3-(9H-purin-6-yl)pyridin-2-yl)amino)-4-methylphenyl)-2-cyclopropylisonicotinamide] was tested. Which GI50 did it give?
Answer: < 20 nM

Question: For `C#Cc1cc(C(=O)Nc2ccc(C)c(Nc3ncccc3-c3ncnc4[nH]cnc34)c2)ccc1Cl` [Compound I-36, N-(3-((3-(9H-purin-6-yl)pyridin-2-yl)amino)-4-methylphenyl)-4-chloro-3-ethynylbenzamide], which GI50 is on record?
Answer: < 20 nM

Question: With `Cc1nc2c(-c3cccnc3Nc3cc(NC(=O)c4cc(C(F)(F)F)c(F)cn4)ccc3C)ncnc2[nH]1` [IA-128, 5-fluoro-N-(4-methyl-3-((3-(8-methyl-9H-purin-6-yl)pyridin-2-yl)amino)phenyl)-4-(trifluoromethyl)picolinamide] as the compound, how does the GI50 read?
Answer: < 20 nM

Question: With `Cc1ccc(NC(=O)C[C@H]2CCN[C@H](C(F)(F)F)C2)cc1Nc1ncccc1-c1ncnc2[nH]cnc12` (single isomer, unassigned) [IA-143] as the compound, how does the GI50 read?
Answer: 100 to 500 nM

Question: How did the GI50 turn out when `Cc1ccc(NC(=O)c2cc(C(F)(F)F)ccn2)cc1Nc1ncccc1-c1ncnc2[nH]c(OCCN(C)C)nc12` [IA-124, N-(3-(3-(8-(2-(dimethylamino)ethoxy)-9H-purin-6-yl)pyridin-2-ylamino)-4-methylphenyl)-4-(trifluoromethyl)picolinamide] was run?
Answer: 20 to 100 nM

Question: Which GI50 does the source give for `Cc1ccc(NC(=O)c2ccc(Cl)c(OC(F)(F)F)c2)cc1Nc1ncccc1-c1ncnc2[nH]cnc12` [Compound I-69, N-(3-((3-(9H-purin-6-yl)pyridin-2-yl)amino)-4-methylphenyl)-4-chloro-3-(trifluoromethoxy)benzamide] here?
Answer: 20 to 100 nM

Question: How did the GI50 turn out when `Cc1c(F)cc(C(=O)Nc2cccc(C(F)(F)F)c2)cc1Nc1ncccc1-c1ncnc2[nH]cnc12` [Compound I-53, 3-((3-(9H-purin-6-yl)pyridin-2-yl)amino)-5-fluoro-4-methyl-N-(3-(trifluoromethyl)phenyl)benzamide] was run?
Answer: 20 to 100 nM

Question: For `Cc1cc(C)c(Nc2ncccc2-c2ncnc3[nH]cnc23)cc1NC(=O)c1cc(C(F)(F)F)ccn1` [IA-119, N-(5-((3-(9H-purin-6-yl)pyridin-2-yl)amino)-2,4-dimethylphenyl)-4-(trifluoromethyl)picolinamide], which GI50 is on record?
Answer: 100 to 500 nM

Question: How did the GI50 turn out when `Cc1ccc(C(=O)Nc2ccnc(C(F)(F)F)c2)cc1Nc1ncccc1-c1ncnc2[nH]cnc12` [Compound I-35, 3-((3-(9H-purin-6-yl)pyridin-2-yl)amino)-4-methyl-N-(2-(trifluoromethyl)pyridin-4-yl)benzamide] was run?
Answer: 20 to 100 nM

Question: `Cc1ccc(NC(=O)CC2CCCC(C(F)(F)F)C2)cc1Nc1ncccc1-c1ncnc2[nH]cnc12` (stereo not shown) [Compound I-47, N-(3-((3-(9H-purin-6-yl)pyridin-2-yl)amino)-4-methylphenyl)-2-(3-(trifluoromethyl)cyclohexyl)acetamide] was tested. Which GI50 did it give?
Answer: < 20 nM

Question: Which GI50 does the source give for `Cc1ccc(NC(=O)CN2CCCOCC2)cc1Nc1ncccc1-c1ncnc2[nH]cnc12` [IA-133, N-(3-((3-(9H-purin-6-yl)pyridin-2-yl)amino)-4-methylphenyl)-2-(1,4-oxazepan-4-yl)acetamide] here?
Answer: ≥ 500 nM

Question: For `Cc1ccc(NC(=O)C23CC(C(F)(F)F)(CO2)C3)cc1Nc1ncccc1-c1ncnc2[nH]cnc12` [IA-108, N-(3-(3-(9H-purin-6-yl)pyridin-2-ylamino)-4-methylphenyl)-4-(trifluoromethyl)-2-oxabicyclo[2.1.1]hexane-1-carboxamide], which GI50 is on record?
Answer: 100 to 500 nM
